Experiment [1] has as its system CDK4/6 protein. Briefly: Western-blot determination of CDK4/6 protein degradation (DC50) in T-47D cells. The note with it: 24 h drug treatment, read-out: DC50(nM)/T-47D cell line. It counts as cell-based, human.
The test system of experiment [2] is CDK4/6 protein. The experiment can be described thus: Western-blot determination of CDK4/6 protein degradation (DC50) in Jurkat cells. It counts as cell-based. The note with it: read-out: DC50(nM)/Jurkat cell line.
Experiment [3] relates to MDA-MB-231 cells. Briefly: Half inhibitory concentration (IC50) on BET-expressing tumor cells, CCK-8, MDA-MB-231. It counts as cell-based. The note with it: Homo sapiens, 48/72 h, read-out: IC50 (nM)/MDA-MB-231 cell line. The method, then: (§1) BET-expressing cells MV-4-11 cells (human B granulocytic leukemia cells), MDA-MB-231 cells (human breast cancer cells), MDA-MB-468 cells (human breast cancer cells), MDA-MB-453 Cells (human breast cancer cells), MM1S cells (myeloma (immunoglobulin A lambda), B lymphoblasts) and SR cells (human large cell immunoblast lymphoma) were purchased from the American Type Culture Collection (ATCC).
(§2) The cells used in this present disclosure were cultured in a 37° C. incubator containing 5% CO2. The complete cell culture medium was RPMI 1640/IMDM/DMEM medium with 10% fetal bovine serum, and the final concentrations of penicillin and streptomycin were 100 U/mL, respectively. All cells were tested negative for mycoplasma with mycoplasma detection kit before the experiment.
(§3) Determination of the Half Inhibitory Concentration (IC50) of PROTAD Compounds on Tumor Cells
(§4) MV-411 cells, MM1S cells and SR cells were seeded in 100 μL IMDM/RPMI1640/DMEM complete medium at a density of 15000/10000 cells/well; MDA-MB-231 cells, MDA-MB-468 cells, and MDA-MB453 cells were seeded in 100 μL IMDM/RPMI1640/DMEM complete medium at a density of 3000/5000 cells/well, respectively. 100 μL of the inoculated cells were treated with 0.5 μL diluted PROTAD compounds of the present disclosure to be tested at 10 successively decreasing concentrations (starting at the highest concentration of 10 μM; 5-fold serial dilutions). After the cells were treated with the tested drugs 48/72 h, the cell viability was determined according to the CCK-8 reagent manual. The negative control was DMSO, and the positive control was a commercial inhibitor. After CCK-8 treatment for 2 h, the value of O.D.450 was measured using a microplate reader.

Experiment [4] relates to MDA-MB-468 cells. Briefly: Half inhibitory concentration (IC50) on BET-expressing tumor cells, CCK-8, MDA-MB-468. It counts as cell-based. The note with it: Homo sapiens, 48/72 h, read-out: IC50 (nM)/MDA-MB-468 cell line. On the procedure: as §1, §2, §3, §4
Experiment [5] concerns MDA-MB-453 cells. Briefly: Half inhibitory concentration (IC50) on BET-expressing tumor cells, CCK-8, MDA-MB-453. It counts as cell-based, human. As to conditions: 48/72 h, read-out: IC50 (nM)/MDA-MB-453 cell line. The method, then:
as §1, §2, §3, §4

The test system of experiment [6] is MM1S cells. Briefly: Half inhibitory concentration (IC50) on BET-expressing tumor cells, CCK-8, MM1S. The note with it: Homo sapiens, MM1.S, 48/72 h, read-out: IC50 (nM)/MM1S cell line. It counts as cell-based. In outline: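 Cells treated for 48/72 h with ten 5-fold dilutions from 10 μM top, DMSO as negative control. Viability read by CCK-8 (2 h, OD450) and IC50 derived from the concentration series; suspension lines seeded at 15000/10000 cells/well, MDA-MB lines at 3000/5000 cells/well.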

Experiment [7] has as its target BRD2 (Homo sapiens, UniProt P25440). Briefly: Western-blot half-degradation concentration (DC50) / degradation of BRD2 in MV-4-11 cells. As to conditions: 24 hours, Western-blot, read-out: DC50 (nM)/MV-4-11 cell line BRD2 degradation. It counts as cell-based. From the text: Western-Blot Determination of the Half-Degradation Concentration (DC50) of the PROTAD Compounds on the Target Proteins
The supernatant was aspirated as total cell protein extracted.

Experiment [8] has as its system MV-4-11 cells. Briefly: Half inhibitory concentration (IC50) on BET-expressing tumor cells, CCK-8, MV-4-11. As to conditions: Homo sapiens, MV4-11, read-out: IC50 (nM)/MV-4-11 cell line, MV-4-11 cells, 48/72 h, CCK-8.
Setting [9] is: Homo sapiens, MDA-MB-453, MDA-MB-453 cells.

Molecules are shown by their SMILES. Like-named read-outs stand apart in the source and are kept apart here.

We go through 6 compounds from patent US12226424B2, “Target protein degradation compounds, their anti-tumor use, their intermediates and use of intermediates” (ShanghaiTech University, priority 2018, dated 2025).

Sequence of BRD2 (P25440 whole entry): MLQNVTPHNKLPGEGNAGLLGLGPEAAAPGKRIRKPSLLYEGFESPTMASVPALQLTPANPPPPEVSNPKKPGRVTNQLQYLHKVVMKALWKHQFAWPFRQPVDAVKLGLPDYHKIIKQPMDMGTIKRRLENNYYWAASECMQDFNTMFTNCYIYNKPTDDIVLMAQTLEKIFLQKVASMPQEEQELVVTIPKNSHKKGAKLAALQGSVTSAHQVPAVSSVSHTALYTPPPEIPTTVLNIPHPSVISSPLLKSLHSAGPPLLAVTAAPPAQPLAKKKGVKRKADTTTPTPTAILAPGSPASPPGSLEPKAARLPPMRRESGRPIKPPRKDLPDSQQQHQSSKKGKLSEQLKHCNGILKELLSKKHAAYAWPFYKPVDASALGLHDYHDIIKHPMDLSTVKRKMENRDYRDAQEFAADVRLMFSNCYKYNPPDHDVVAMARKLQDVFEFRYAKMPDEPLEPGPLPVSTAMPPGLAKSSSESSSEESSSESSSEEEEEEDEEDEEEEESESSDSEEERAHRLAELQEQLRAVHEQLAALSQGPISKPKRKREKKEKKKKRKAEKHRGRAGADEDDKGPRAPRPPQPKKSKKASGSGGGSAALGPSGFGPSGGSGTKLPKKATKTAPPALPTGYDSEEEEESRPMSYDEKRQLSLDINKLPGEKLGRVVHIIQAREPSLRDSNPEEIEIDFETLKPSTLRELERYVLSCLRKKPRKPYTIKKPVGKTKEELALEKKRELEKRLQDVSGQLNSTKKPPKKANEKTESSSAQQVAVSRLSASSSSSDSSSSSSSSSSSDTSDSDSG

Regarding `CC(=O)c1c(C)c2cnc(Nc3ccc(N4CCN(C(=O)CSc5cccc6c5C(=O)N(C5CCC(=O)NC5=O)C6=O)CC4)cn3)nc2n(C2CCCC2)c1=O` (stereo not shown) [SIAIS151046, 4-((2-(4-(6-((6-acetyl-8-cyclopentyl-5-methyl-7-oxo-7,8-dihydropyrido[2,3-d]pyrimidin-2-yl)amino)pyridin-3-yl)piperazin-1-yl)-2-oxoethyl)thio)-2-(2,6-dioxopiperidin-3-yl)isoindoline-1,3-dione], the DC50 in experiment [1] and in experiment [2] was 1 to 10 nM throughout.

As to `Cc1sc2c(c1C)C(c1ccc(Cl)cc1)=N[C@@H](CC(=O)NCCCCSc1cccc3c1C(=O)N(C1CCC(=O)NC1=O)C3=O)c1nnc(C)n1-2` (stereo partly drawn) [SIAIS171037, 2-((S)-4-(4-chlorophenyl)-2,3,9-trimethyl-6H-thieno[3,2-f][1,2,4]triazolo[4,3-a][1,4]diazepin-6-yl)-N-(4-((2-(2,6-dioxopiperidin-3-yl)-1,3-dioxoisoindolin-4-yl)thio)butyl)acetamide], the IC50 was 88 ± 38 nM in experiment [3]; 52.5 ± 24 nM in experiment [4]; 154 nM in experiment [5] (setting [9]); 226 nM in experiment [5] (MDA-MB-453 cells); 5.36 nM in experiment [6]; 6.2 ± 4.1 nM in experiment [8]. The DC50 in experiment [7] is < 0.4 nM.

Consider `Cc1sc2c(c1C)C(c1ccc(Cl)cc1)=N[C@@H](CC(=O)NCCCCCSc1cccc3c1C(=O)N(C1CCC(=O)NC1=O)C3=O)c1nnc(C)n1-2` (stereo partly drawn) [SIAIS171038, 2-((S)-4-(4-chlorophenyl)-2,3,9-trimethyl-6H-thieno[3,2-f][1,2,4]triazolo[4,3-a][1,4]diazepin-6-yl)-N-(5-((2-(2,6-dioxopiperidin-3-yl)-1,3-dioxoisoindolin-4-yl)thio)pentyl)acetamide], for which the IC50 came out at 182 ± 89 nM in experiment [3]; 61 ± 8 nM in experiment [4]; 135 nM in experiment [5] (setting [9]); 230 nM in experiment [5] (MDA-MB-453 cells); 7.77 nM in experiment [6]; 6.2 ± 3 nM in experiment [8]. The DC50 in experiment [7] is < 0.4 nM.

Turning to `CC(=O)c1c(C)c2cnc(Nc3ccc(N4CCN(C(=O)CCCCCCSc5cccc6c5C(=O)N(C5CCC(=O)NC5=O)C6=O)CC4)cn3)nc2n(C2CCCC2)c1=O` (stereo not shown) [SIAIS184090, 4-((7-(4-(6-((6-acetyl-8-cyclopentyl-5-methyl-7-oxo-7,8-dihydropyrido[2,3-d]pyrimidin-2-yl)amino)pyridin-3-yl)piperazin-1-yl)-7-oxoheptyl)thio)-2-(2,6-dioxopiperidin-3-yl)isoindoline-1,3-dione], the DC50 in experiment [1] and in experiment [2] was 1 to 10 nM each time.

As for `CC(=O)c1c(C)c2cnc(Nc3ccc(N4CCN(C(=O)COCCSc5cccc6c5C(=O)N(C5CCC(=O)NC5=O)C6=O)CC4)cn3)nc2n(C2CCCC2)c1=O` (stereo not shown) [SIAIS184091, 4-((2-(2-(4-(6-((6-acetyl-8-cyclopentyl-5-methyl-7-oxo-7,8-dihydropyrido[2,3-d]pyrimidin-2-yl)amino)pyridin-3-yl)piperazin-1-yl)-2-oxoethoxy)ethyl)thio)-2-(2,6-dioxopiperidin-3-yl)isoindoline-1,3-dione], the DC50 in experiment [1] and in experiment [2] was 1 to 10 nM in each case.

Consider `CC(=O)c1c(C)c2cnc(Nc3ccc(N4CCN(C(=O)CCCCSc5cccc6c5CN(C5CCC(=O)NC5=O)C6=O)CC4)cn3)nc2n(C2CCCC2)c1=O` (stereo not shown) [SIAIS184092, 3-(4-((5-(4-(6-((6-acetyl-8-cyclopentyl-5-methyl-7-oxo-7,8-dihydropyrido[2,3-d]pyrimidin-2-yl)amino)pyridin-3-yl)piperazin-1-yl)-5-oxopentyl)thio)-1-oxoisoindolin-2-yl)piperidine-2,6-dione], for which the figures for the DC50 in experiment [1] and in experiment [2] were < 0.1 nM and < 1 nM, respectively.
